This passage reports GI50 and TGI results from PubChem BioAssay (NCI).

Several values for one entry are separate records, joined by “and”; a condition that tells them apart may be missing. Equal entries are not always repeated.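 Interpolation was linear, between the two tested concentrations surrounding the appropriate level; five concentrations were tested over 48 hours in 96-well plates. GI50: concentration for 50% inhibition of growth. TGI: total growth inhibition.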 A value given as a limit tells only on which side of the number the result lay.

Some test systems named below: SNB-19 CNS; RPMI-8226 leukemia; SF-539 CNS; T-47D breast; A498 renal; PC-3 prostate; SK-MEL-28 melanoma; MALME-3M melanoma; MOLT-4 leukemia; SF-295 CNS.
Holding throughout (test): growth of human tumour cells (NCI), 48 h

Take `O=S(=O)(NC1=NCCN1C(=S)SN1CCn2c1nsc2=S)c1ccc(Br)cc1`: the GI50 in the experiment on SNB-19 CNS is above 100 µM; with RPMI-8226 leukemia, 1.86 µM; with SF-539 CNS, 18.6 µM; with T-47D breast, 43.5 µM; with A498 renal, 33.7 µM; in the experiment with PC-3 prostate, 30.8 µM. Also, the GI50 in the experiment on SK-MEL-28 melanoma is 72.5 µM; in the experiment on MALME-3M melanoma it was 11.7 µM; with MOLT-4 leukemia, 27.1 µM; with SF-295 CNS, 46.2 µM. Also, the TGI with SNB-19 CNS was above 100 µM; in the experiment with RPMI-8226 leukemia it was 37.2 µM; with SF-539 CNS it was 38.9 µM; in the experiment with T-47D breast, above 100 µM; in the experiment on A498 renal it was above 100 µM; with PC-3 prostate, above 100 µM. In addition, the TGI was above 100 µM with SK-MEL-28 melanoma, 56.3 µM in the experiment with MALME-3M melanoma, above 100 µM in the experiment on MOLT-4 leukemia and above 100 µM in the experiment on SF-295 CNS.

For `O=C1Nc2ccc(C(=O)c3ccco3)cc2/C1=C/c1cc(Cl)c(O)c(Cl)c1`, the GI50 was 8.52 µM with SNB-19 CNS; 4.02 µM in the experiment on RPMI-8226 leukemia; 3.93 µM with SF-539 CNS; 7.17 µM with T-47D breast; 3.69 µM with A498 renal; 6.52 µM in the experiment with PC-3 prostate. For the same molecule, the GI50 in the experiment on SK-MEL-28 melanoma is 4.17 µM; in the experiment on MALME-3M melanoma it was 1.66 µM; with MOLT-4 leukemia, 9.36 µM; with SF-295 CNS, 8.21 µM. Further, the TGI with SNB-19 CNS is above 25 µM; with RPMI-8226 leukemia, 12.5 µM; in the experiment with SF-539 CNS, 9.49 µM; in the experiment with T-47D breast it was above 25 µM; in the experiment on A498 renal, 9.72 µM; in the experiment with PC-3 prostate, above 24.1 µM. For the same molecule, the TGI is above 18.1 µM in the experiment with SK-MEL-28 melanoma, 11.1 µM in the experiment on MALME-3M melanoma, 24.9 µM in the experiment on MOLT-4 leukemia and above 25 µM in the experiment on SF-295 CNS.

As for `COc1ccc(CN(C)c2ccc(CO)c(Cl)c2)cc1`, the GI50 was 34 µM in the experiment with SNB-19 CNS; 9.71 µM in the experiment on RPMI-8226 leukemia; 47.7 µM in the experiment on SF-539 CNS; 0.513 µM with T-47D breast; 0.0416 µM in the experiment with A498 renal; 20.7 µM with PC-3 prostate. In addition, the GI50 in the experiment on SK-MEL-28 melanoma is 24.6 µM; in the experiment on MALME-3M melanoma, 21 µM; in the experiment with MOLT-4 leukemia it was 25.8 µM; with SF-295 CNS, 3.35 µM. For the same molecule, the TGI is above 100 µM in the experiment with SNB-19 CNS; above 65.4 µM with RPMI-8226 leukemia; above 100 µM in the experiment on SF-539 CNS; 3.82 µM with T-47D breast; 0.178 µM in the experiment on A498 renal; above 100 µM with PC-3 prostate. Also, the TGI in the experiment with SK-MEL-28 melanoma was above 100 µM; in the experiment on MALME-3M melanoma it was 65.6 µM; with MOLT-4 leukemia it was above 86.7 µM; in the experiment with SF-295 CNS it was above 100 µM.

Regarding `O=C1CC(NC(=O)C(F)(F)F)c2c1csc2Br` (stereo not drawn), the TGI with SNB-19 CNS, with RPMI-8226 leukemia, with SF-539 CNS, in the experiment on T-47D breast, in the experiment with A498 renal and with PC-3 prostate was above 100 µM throughout. The TGI in the experiment with SK-MEL-28 melanoma, in the experiment on MALME-3M melanoma, in the experiment with MOLT-4 leukemia and in the experiment with SF-295 CNS was above 100 µM throughout.

Consider `CO[C@@H]1/C=C\C=C(/C)C(=O)NC2=CC(=O)C(NCCN(C)C)=C(C[C@@H](C)C[C@@H](OC)[C@@H](O)[C@H](C)/C=C(\C)[C@H]1OC(N)=O)C2=O`, for which the TGI was 7.99 µM and 15.5 µM in the experiment with SNB-19 CNS; 19.6 µM and 6.32 µM with RPMI-8226 leukemia; 11.6 µM and 3.38 µM in the experiment on SF-539 CNS; 3.31 µM and 4.48 µM in the experiment on T-47D breast; 28.3 µM in the experiment with A498 renal; 33.6 µM and 17.8 µM with PC-3 prostate. Further, the TGI with SK-MEL-28 melanoma was > 100 µM and 32.4 µM; in the experiment on MALME-3M melanoma, 3.73 µM and 0.562 µM; in the experiment on MOLT-4 leukemia, 1.02 µM and 8.39 µM; in the experiment on SF-295 CNS, 17.2 µM and 11.7 µM. The GI50 in the experiment on SF-539 CNS is < 0.01 µM and 0.0319 µM; in the experiment on T-47D breast, 0.03 µM and 0.0574 µM; with PC-3 prostate it was < 0.01 µM and 0.0264 µM; in the experiment with MOLT-4 leukemia, 0.0444 µM; in the experiment on SF-295 CNS, 0.0278 µM.

For the molecule `CCN(CC)CCCC(C)Nc1c2ccc(Cl)cc2nc2ccc(OC)cc12` (stereo not drawn), the GI50 in the experiment on SNB-19 CNS was 1.96 µM; in the experiment on SF-539 CNS it was 1.86 µM; with T-47D breast, 2.59 µM; with A498 renal, 1.64 µM; in the experiment on PC-3 prostate it was 2.24 µM; in the experiment on SK-MEL-28 melanoma, 2.27 µM. The GI50 is 0.863 µM in the experiment on MOLT-4 leukemia and 1.55 µM in the experiment with SF-295 CNS. In addition, the TGI in the experiment with SNB-19 CNS was 10.8 µM and 16.2 µM; with RPMI-8226 leukemia it was 5.74 µM and 5.11 µM; in the experiment with SF-539 CNS, 3.39 µM and 3.3 µM; in the experiment on T-47D breast, 7.01 µM and 5.68 µM; in the experiment with A498 renal it was 6.93 µM and 5.11 µM; in the experiment on PC-3 prostate, 9.19 µM and 5.73 µM. In addition, the TGI in the experiment with SK-MEL-28 melanoma was 4.4 µM and 3.1 µM; in the experiment on MALME-3M melanoma it was 3.79 µM and 3.3 µM; in the experiment on MOLT-4 leukemia it was 4.34 µM and 2.52 µM; in the experiment on SF-295 CNS, 3.51 µM and 2.4 µM.

In the case of `CC1=C2[C@@H](CC1)[C@]1(C)O[C@@](C3CCCCC3)(C[C@H]1OC(=O)CO)[C@H]2OC(=O)/C=C/c1ccccc1`, the GI50 in the experiment on SNB-19 CNS was 13.1 µM; in the experiment with RPMI-8226 leukemia, 9.51 µM; in the experiment with SF-539 CNS it was 12.8 µM; with T-47D breast it was 4.69 µM; in the experiment on A498 renal it was 0.0208 µM; with PC-3 prostate, 6.33 µM. Further, the GI50 in the experiment on SK-MEL-28 melanoma is 9.53 µM; with MALME-3M melanoma it was 12 µM; in the experiment with MOLT-4 leukemia it was 5.82 µM; in the experiment on SF-295 CNS, 6.45 µM. Also, the TGI in the experiment with SNB-19 CNS turned out to be 31.4 µM; with RPMI-8226 leukemia, 33.2 µM; in the experiment with SF-539 CNS it was 27.7 µM; in the experiment with T-47D breast, 17.5 µM; in the experiment with A498 renal it was 0.0731 µM; in the experiment on PC-3 prostate it was 21.2 µM. In addition, the TGI was 27.1 µM with SK-MEL-28 melanoma, 28 µM in the experiment with MALME-3M melanoma, 17.4 µM with MOLT-4 leukemia and 19 µM in the experiment on SF-295 CNS.
